Paper PMC1892040 (PLoS Medicine, 2007)
Where two headings read alike, the source gives them in different places.

How the values were obtained:
S. mansoni TGR [1] = target: T1, S. mansoni TGR (Schistosoma mansoni, UniProt Q962Y6); test: Kinetic analysis of recombinant S. mansoni TGR with substrates; conditions: for Specific activity, S. mansoni TGR: NADPH + substrate; for Specific activity of recombinant TGR with substrate: Trx coupled to insulin reduction, HED in Grx assay
T1 sequence (Q962Y6 1-598): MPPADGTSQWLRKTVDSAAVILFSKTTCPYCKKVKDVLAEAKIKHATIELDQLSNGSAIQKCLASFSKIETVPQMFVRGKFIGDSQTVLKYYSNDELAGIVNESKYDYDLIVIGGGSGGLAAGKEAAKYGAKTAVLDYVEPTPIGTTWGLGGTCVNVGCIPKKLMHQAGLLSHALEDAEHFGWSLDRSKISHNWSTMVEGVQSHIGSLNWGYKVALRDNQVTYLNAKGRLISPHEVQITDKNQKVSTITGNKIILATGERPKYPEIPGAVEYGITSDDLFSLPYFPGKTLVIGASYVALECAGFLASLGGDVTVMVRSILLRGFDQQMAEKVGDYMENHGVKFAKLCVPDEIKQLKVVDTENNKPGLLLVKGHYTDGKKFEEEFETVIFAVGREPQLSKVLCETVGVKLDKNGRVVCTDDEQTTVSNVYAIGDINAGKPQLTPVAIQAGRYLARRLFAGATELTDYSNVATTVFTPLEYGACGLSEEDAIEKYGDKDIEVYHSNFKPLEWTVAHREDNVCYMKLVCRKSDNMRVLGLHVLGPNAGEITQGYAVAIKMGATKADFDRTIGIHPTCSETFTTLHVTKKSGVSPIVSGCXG
Experimental: Kinetic parameters were determined using Lineweaver–Burk plots using KaleidaGraph 4 (Synergy Software, http://www.synergy.com) least squares best fit of data and varying concentrations of one substrate while maintaining the concentration of other substrates. […] All assays were done in triplicate.

Human TGR = conditions: cited from earlier work; for Specific activity, Human TGR: NADPH + substrate; for Km: read-out: Apparent Km, Human TGR
Human TrxR1 = conditions: cited from earlier work; for Specific activity, Human TrxR1: NADPH + substrate, ND, no activity detected; for Km: read-out: Apparent Km, Human TrxR1
S. mansoni TGR [2] = target: T1, S. mansoni TGR; test: biochemical; conditions: read-out: Activity of Enzyme (% of Uninhibited Enzyme)
Experimental: (§1) Assays were performed at 25 °C in 0.1 M potassium phosphate (pH 7.4), 10 mM EDTA using 100 μM NADPH unless otherwise stated.
(§2) Initial inhibitor screens were conducted in 200 μl volumes in 96 well plates with 50 μM inhibitor, 100 μM NADPH, and 5 nM TGR in 0.1 M potassium phosphate (pH 7.4), 10 mM EDTA with a preincubation step of 15 min. […] All assays were done in triplicate.

S. mansoni TGR [3] = target: T1, S. mansoni TGR
Experimental: as §1, §2

Human TrxR = target: T2, Human TrxR (Homo sapiens, UniProt Q16881); conditions: read-out: IC50 Human TrxR, DTNB/Trx; cited from earlier work
T2 sequence (Q16881 1-499 isoform Q16881-5): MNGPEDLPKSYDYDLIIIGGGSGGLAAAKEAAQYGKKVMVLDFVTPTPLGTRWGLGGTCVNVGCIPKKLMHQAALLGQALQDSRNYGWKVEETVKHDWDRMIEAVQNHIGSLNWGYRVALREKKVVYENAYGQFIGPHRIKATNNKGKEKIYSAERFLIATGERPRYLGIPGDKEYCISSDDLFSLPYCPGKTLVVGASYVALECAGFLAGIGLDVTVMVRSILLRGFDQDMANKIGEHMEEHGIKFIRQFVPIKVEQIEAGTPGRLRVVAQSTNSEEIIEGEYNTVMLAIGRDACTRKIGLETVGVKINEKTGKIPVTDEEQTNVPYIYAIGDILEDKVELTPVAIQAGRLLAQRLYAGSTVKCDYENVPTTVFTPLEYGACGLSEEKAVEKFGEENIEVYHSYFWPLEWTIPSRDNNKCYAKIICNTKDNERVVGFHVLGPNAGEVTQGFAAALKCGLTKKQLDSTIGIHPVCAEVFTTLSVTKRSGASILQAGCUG

S. mansoni TGR [4] = target: T1, S. mansoni TGR; test: IC50, Grx activity of TGR (HED assay), 15 min preincubation; format: biochemical; design: The entire TGR ORF plus the SECIS element was subcloned into pET-24a; made in house; host or cells: Escherichia coli BL21(DE3) with pSUABC; conditions: 8 mM HED plus 1 mM GSH, 15 min preincubation with 100 μM NADPH
Experimental: as §1, §2

S. mansoni TGR [5] = target: T1, S. mansoni TGR; format: biochemical; design: The entire TGR ORF plus the SECIS element was subcloned into pET-24a; made in house; host or cells: Escherichia coli BL21(DE3) with pSUABC; conditions: read-out: IC50 S. mansoni TGR, GSSG (GR activity)
Experimental: as §1, §2

Human GR = target: T3, Human GR (Homo sapiens, UniProt P00390); conditions: read-out: IC50 Human GR, GSSG; cited from earlier work
T3 sequence (P00390 44-522): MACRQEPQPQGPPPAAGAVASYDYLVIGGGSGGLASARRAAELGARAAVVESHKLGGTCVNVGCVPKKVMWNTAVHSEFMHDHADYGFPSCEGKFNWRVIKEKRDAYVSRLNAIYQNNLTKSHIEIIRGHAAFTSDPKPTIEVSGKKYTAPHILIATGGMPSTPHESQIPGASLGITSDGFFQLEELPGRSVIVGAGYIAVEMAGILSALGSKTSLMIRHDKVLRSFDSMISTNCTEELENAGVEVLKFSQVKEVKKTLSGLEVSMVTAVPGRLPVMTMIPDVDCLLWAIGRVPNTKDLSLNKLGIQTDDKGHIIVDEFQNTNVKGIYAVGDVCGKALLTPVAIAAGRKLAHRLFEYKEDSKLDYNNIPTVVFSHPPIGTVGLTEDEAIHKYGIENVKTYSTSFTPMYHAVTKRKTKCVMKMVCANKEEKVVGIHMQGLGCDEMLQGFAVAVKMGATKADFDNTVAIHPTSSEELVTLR

S. mansoni TGR [6] = target: T1, S. mansoni TGR; format: biochemical; design: The entire TGR ORF plus the SECIS element was subcloned into pET-24a; made in house; host or cells: Escherichia coli BL21(DE3) with pSUABC; conditions: read-out: IC50 S. mansoni TGR, DTNB (TrxR activity)
Experimental: as §1, §2

schistosomula = test: Schistosomula survival after RNAi and/or drug treatment; format: cell-based, Schistosoma mansoni; conditions: 2 μM praziquantel
Experimental: Cercariae were mechanically transformed to schistosomula by vortexing, and bodies were separated from tails by Percoll gradient centrifugation as described [13]. Immediately after transformation, TGR dsRNA or irrelevant dsRNA (each at 54 μg/ml) was added to ~500 schistosomula in 50 μl water followed by incubation at 37 °C for 30 min. After addition of 250 μl of RPMI-1640 medium, 300 U/ml penicillin, and 175 μg/ml streptomycin, parasites were incubated at 37 °C in 5% CO2 atmosphere for 4 d. Reduced O2 tension was obtained by filtering media and purging with 95% N2, 5% CO2 for 20 min before use. Parasites were cultured during the course of the experiment in the appropriate gaseous mix at 37 °C in a sealed modular incubator chamber (Billups-Rothenberg, http://www.brincubator.com) flushed with the same gaseous mix. On day 2 of the experiment, 50 μl of fresh media was added. Schistosomula were assessed daily for viability by microscopy. For each time point at least 1,500 parasites were scored as alive or dead in each experiment (three replicates of 500 each), and each experiment was repeated three times.
(B) Parasites were cultured in the presence of double-stranded TGR RNA (dashed lines) or of double-stranded irrelevant RNA (solid lines) in 20% O2 (♦) or 0% O2 (). […] (C) Combination of RNAi and drug treatments. Solid lines are irrelevant dsRNA treatments and dashed lines are dsTGR treatments; no additions (♦), 2 μM praziquantel () and 2 μM AF (▴). […] In each experiment for each time point at least 1,500 parasites were scored as alive or dead (three replicates of 500 parasites). The error bars represent the standard deviations of three independent experiments.

[7] = substrate of TGR (20 nM), 25 °C, pH 7.4, 100 μM NADPH
[8] = substrate of TGR (20 nM), 25 °C, pH 7.4, 100 μM NADPH, ± SD
[9] = 100 μM GSSG, 15 min preincubation with 100 μM NADPH
[10] = 3 mM DTNB, 15 min preincubation with 100 μM NADPH
[11] = read-out: Apparent Km, S. mansoni TGR

O=C(O)c1cc(SSc2ccc([N+](=O)[O-])c(C(=O)O)c2)ccc1[N+](=O)[O-] [DTNB, 5,5′-dithiobis(2-nitrobenzoic acid)]
Specific activity, S. mansoni TGR (S. mansoni TGR [1]): 10.2 µmol/min/mg | Specific activity of recombinant TGR with substrate (S. mansoni TGR [1]): 10.2 U/mg | kcat (S. mansoni TGR [1]; [7]): 16 s⁻¹ | Km (S. mansoni TGR [1]; [8]): 114 ± 9 µM | Vmax (S. mansoni TGR [1]; [8]): 19.2 ± 1.6 µM/min | Specific activity, Human TGR (Human TGR): 3.1 µmol/min/mg | Apparent kcat, Human TGR (Human TGR): 6.5 s⁻¹ | Km (Human TGR): 14.7 µM | Specific activity, Human TrxR1 (Human TrxR1): 25 µmol/min/mg | Apparent kcat, Human TrxR1 (Human TrxR1): 86 s⁻¹ | Km (Human TrxR1): 212 µM

O=C1OC(C(O)CO)C(=O)C1=O (stereo not drawn) [DHAA, dehydroascorbic acid]
kcat (S. mansoni TGR [1]; [7]): <0.25 s⁻¹ | Vmax (S. mansoni TGR [1]; [8]): <0.3 µM/min

CC1=CC(=O)c2ccccc2C1=O [Menadione]
activity at 50 µM (S. mansoni TGR [2]): 18%

Cc1cc2nc3cc(C)c(N)cc3[n+](-c3ccccc3)c2cc1N [Safranin]
activity (S. mansoni TGR [3]): 75%

OC[C@H]1O[C@H]([S-])[C@H](O)[C@@H](O)[C@@H]1O.[Au+] [Aurothioglucose]
IC50 (Human TrxR): 65 nM | IC50 (S. mansoni TGR [4]): 400 nM | IC50 (S. mansoni TGR [5]): 3000 nM | IC50 (Human GR): > 100000 nM | IC50 (S. mansoni TGR [6]): 70 nM | Activity of Enzyme (% of Uninhibited Enzyme) (S. mansoni TGR [3]): 0%

O=[Se]([O-])[O-].[Na+].[Na+] [Na2SeO3, sodium selenite]
kcat (S. mansoni TGR [1]; [7]): 2.1 s⁻¹ | Km (S. mansoni TGR [1]; [8]): 66.7 ± 6.9 µM | Vmax (S. mansoni TGR [1]; [8]): 2.54 ± 0.046 µM/min

CC(C)(C)OO [t-Butyl-OOH, tert-butyl hydroperoxide]
kcat (S. mansoni TGR [1]; [7]): 10.7 s⁻¹ | Km (S. mansoni TGR [1]; [8]): 48600 µM | Vmax (S. mansoni TGR [1]; [8]): 12.8 ± 0.33 µM/min

O=C(O)CC([S-])C(=O)O.[Au+] (stereo not drawn) [Aurothiomalate]
IC50 (Human TrxR): 280 nM | IC50 (S. mansoni TGR [4]): 50 nM | IC50 (S. mansoni TGR [5]; [9]): 50 nM | IC50 (S. mansoni TGR [6]; [10]): 90 nM | activity (S. mansoni TGR [3]): 0%

OO [Compound H2O2, H2O2]
kcat (S. mansoni TGR [1]; [7]): 9.4 s⁻¹ | Km (S. mansoni TGR [1]; [8]): 68000 µM | Vmax (S. mansoni TGR [1]; [8]): 11.3 ± 0.46 µM/min

CN(C)CCC(=O)c1ccccc1 [Compound 3-DAP]
IC50 (S. mansoni TGR [5]; [9]): 7000 nM | IC50 (S. mansoni TGR [6]; [10]): 500 nM

CN(C)c1ccc2nc3ccc(=[N+](C)C)cc-3sc2c1 [Methylene blue]
activity at 50 µM (S. mansoni TGR [2]): 100%

O=C1C=CC(=O)c2c(O)ccc(O)c21 [Naphthazarin]
IC50 (Human TrxR): 650 nM

O=C(C1CCCCC1)N1CC(=O)N2CCc3ccccc3C2C1 (stereo not drawn) [Praziquantel]
activity at 50 µM (S. mansoni TGR [2]): 100% | Effect on schistosomula survival alone or in combination with RNAi (schistosomula): no effect | Inhibition of TGR, in words (S. mansoni TGR [3]): no inhibitory activity

O=C(O)CCCC[C@@H]1CCSS1 (racemic) [Lipoic acid]
kcat (S. mansoni TGR [1]; [7]): 1.7 s⁻¹ | Km (S. mansoni TGR [1]; [8]): 2610 µM | Vmax (S. mansoni TGR [1]; [8]): 2.03 ± 0.135 µM/min

OCCSSCCO [HED, β-hydroxyethyl disulfide]
Apparent kcat, S. mansoni TGR (S. mansoni TGR [1]): 17.8 s⁻¹ | Specific activity, S. mansoni TGR (S. mansoni TGR [1]): 9.9 µmol/min/mg | Specific activity of recombinant TGR with substrate (S. mansoni TGR [1]): 9.9 U/mg | Km (S. mansoni TGR [1]; [11]): 1870 µM | kcat (S. mansoni TGR [1]; [7]): 17.8 s⁻¹ | Km (S. mansoni TGR [1]; [8]): 1870 µM | Vmax (S. mansoni TGR [1]; [8]): 21.4 ± 0.33 µM/min | Specific activity, Human TGR (Human TGR): 1.9 µmol/min/mg | Apparent kcat, Human TGR (Human TGR): 1.2 s⁻¹ | Km (Human TGR): 45.2 µM

CC1=CC(=O)c2c(O)cccc2C1=O [Plumbagin]
activity at 50 µM (S. mansoni TGR [2]): 15%

COC1=C(OC)C(=O)C(C/C=C(\C)CC/C=C(\C)CC/C=C(\C)CC/C=C(\C)CC/C=C(\C)CC/C=C(\C)CC/C=C(\C)CC/C=C(\C)CC/C=C(\C)CCC=C(C)C)=C(C)C1=O [Ubiquinone]
kcat (S. mansoni TGR [1]; [7]): <0.25 s⁻¹ | Vmax (S. mansoni TGR [1]; [8]): <0.3 µM/min

O=C1C=CC(=O)c2ccccc21 [Compound M5]
activity (S. mansoni TGR [3]): 37%

B1: Trx: 12 kDa protein thioredoxin, substrate of TrxR and TGR enzymes (protein, UniProt P10599 2-105, looked up)
Thioredoxin: VKQIESKTAFQEALDAAGDKLVVVDFSATWCGPCKMIKPFFHSLSEKYSNVIFLEVDVDDCQDVASECEVKCMPTFQFFKKGQKVGEFSGANKEKLEATINELV
Apparent kcat, S. mansoni TGR (S. mansoni TGR [1]): 30 s⁻¹ | Specific activity, S. mansoni TGR (S. mansoni TGR [1]): 2.2 µmol/min/mg | Specific activity of recombinant TGR with substrate (S. mansoni TGR [1]): 2.2 U/mg | Km (S. mansoni TGR [1]; [11]): 6.37 µM | Specific activity, Human TGR (Human TGR): 4.2 µmol/min/mg | Apparent kcat, Human TGR (Human TGR): 5.7 s⁻¹ | Km (Human TGR): 3 µM | Specific activity, Human TrxR1 (Human TrxR1): 5.9 µmol/min/mg | Apparent kcat, Human TrxR1 (Human TrxR1): 9.8 s⁻¹ | Km (Human TrxR1): 4.73 µM
